Source: PMC12257073 (Cancer Research Communications, 2025)
Several values for one entry are separate records, joined by “and”; a condition that tells them apart may be missing. Equal entries are not always repeated. Where two headings read alike, the source gives them in different places.

Columns and labels:
TP53 = TP53 variant allele frequency by serial targeted next-generation sequencing; type: in vivo, human
Method: Mutations in germline and serial bone marrow or blood samples were determined by targeted next-generation sequencing (NGS). NGS aligned read files are available in the NCBI’s Sequence Read Archive under accession PRJNA1236309. See Supplementary Methods for details.
Genomic DNA was isolated from cryopreserved cells with QIAmp DNA Mini Kit (Qiagen) and fragmented using ME220 Focused-ultrasonicator (Covaris; SCR_019818). Libraries were generated using xGen™ DNA Lib Prep MC UNI kit and target capture was done using xGen AML Cancer Hybridization Panel in conjunction with a 3 gene spike-in pool for ZRSR2, AXL, and ASXL2 (Integrated DNA Technologies). DNA library preparations were performed according to the manufacturer’s instructions and sequenced on an Illumina Novaseq (OSUCCC Genomics Shared Resource) (SCR_016387). Sequenced reads were aligned to the GRCh38 genome build using the Burrows-Wheeler Aligner (BWA) (SCR_010910). Picard Tools was used to perform UMI-consensus calling on the aligned reads. The Genome Analysis Toolkit (GATK) (SCR_001876) was used to realign insertions and deletions in the aligned reads and to perform base quality score recalibration for those realigned regions. GATK’s MuTect2 (SCR_026692) was used to perform variant calling. After variant calling, variants were annotated using SnpEff (SCR_005191) and vcfanno (SCR_024372) along with the dbsnp (SCR_002338), COSMIC (SCR_002260), and gnomad variant databases (SCR_014964). The Mucor3 algorithm was used as the baseline for integrative mutation assessment. Visual inspection of all variants was carried out using Integrative Genomics Viewer v.2.8 (Broad Institute).

p-H2AX = p-H2AX in peripheral blood by spectral flow cytometry; type: in vivo, human; conditions: cycle 1, CR (n = 2), CRh/CRi/MLFS (n = 8), SD, treatment failure or early death (n = 7)
Method: In brief, Ficoll-enriched peripheral blood mononuclear cells were stained for external markers, fixed, permeabilized, and then stained for p-H2AX (Thermo Fisher Scientific; AB_2896984). Sample analysis was performed in the Ohio State University Comprehensive Cancer Center Flow Cytometry Shared Resource and Immune Monitoring & Discovery Platform using the Cytek Aurora. Data were analyzed using FCS Express version 7 (De Novo Software).
Based on the observation that TP-0903 upregulates p-H2AX, a marker of DNA damage, in TP53-mutated cell lines ([24]), we hypothesized that p-H2AX could serve as a clinical biomarker for TP-0903 activity. Analysis of peripheral blood from days 1 and 10 of cycle 1 was performed by spectral flow cytometry. The mean fluorescence intensity was measured for p-H2AX, and then values at day 10 were normalized using baseline values collected on day 1 (Supplementary Fig. S4).

[1] = test system: newly diagnosed AML with mutations in TP53 and/or complex karyotype; test: Overall survival and duration of response (Kaplan–Meier); type: in vivo, human; conditions: for Response duration: No. of events / Response duration: median (95% CI): patients who achieved CR/CRh/CRi
Method: Demographics were summarized by descriptive statistics. Duration of response was calculated from the date when composite CR was achieved to […], censoring patients who remained alive and relapse-free at the time of the last follow-up. OS was calculated from treatment start to all-cause death, censoring patients who were alive at the time of the last follow-up. Kaplan–Meier methodology was used to assess OS and duration of response.

[2] = test system: newly diagnosed AML with mutations in TP53 and/or complex karyotype
Method: Dose-limiting toxicities (DLT) were evaluated to establish the dose brought forward for an expansion cohort (phase 2).
The primary endpoint was achievement of CR within six cycles of therapy. Secondary endpoints included toxicity, duration of response, OS, and the proportion of eligible patients who effectively transitioned to allogeneic stem cell transplantation. Exploratory endpoints included pharmacokinetics (PK), correlative genetic, and biochemical data; correlations between morphologic remission, spectral flow cytometry, and mutational remission; and duration of remission or survival. […] Adverse events (AE) were graded according to the NCI Common Terminology Criteria for Adverse Events version 4.0 ([27]).
The phase 1b portion of the study used a standard 3 + 3 design with dose-escalation based on DLT. […] In the first stage, if four or more of 12 patients achieved CR, then an additional 21 patients would be enrolled for a total of 33 patients. At the end of the study, if 12 or more of all 33 patients achieved CR, then the null hypothesis would be rejected.

[3] = Treatment duration and reasons off treatment
[4] = TP53-mutated patients, TP-0903 + decitabine, n = 20
[5] = TP53-mutated patients, TP-0903 + decitabine
[6] = group 1, TP-0903 37 mg/day + decitabine, n = 15
[7] = group 1, TP-0903 37 mg/day + decitabine
[8] = group 2, TP-0903 25 mg/day + decitabine, n = 12
[9] = group 2, TP-0903 25 mg/day + decitabine
[10] = overall, TP-0903 + decitabine, n = 27
[11] = group 1, 37 mg TP-0903 + decitabine, 15 patients
[12] = group 2, 25 mg TP-0903 + decitabine, 12 patients

CN1CCN(Cc2ccc(Nc3ncc(Cl)c(Nc4ccccc4S(=O)(=O)N(C)C)n3)cc2)CC1.O=C(O)C(O)C(O)C(=O)O.O=C(O)C(O)C(O)C(=O)O [TP-0903, 2-(5-chloro-2-(4-((4-methylpiperazin-1-yl)methyl)phenylamino)pyrimidin-4-yl)amino-N,N-dimethylbenzene-1-sulfonamide di-tartrate salt]
Change in TP53 VAF (TP53; patients who achieved CR, n = 5, P < 0.01): significantly decreased | Change in TP53 VAF (TP53; patients who achieved CRh/CRi/MLFS, n = 7, P < 0.01): significantly decreased | Change in TP53 VAF (TP53; patients who had SD, treatment failure, or early death, n = 3): not significantly changed | Change in p-H2AX mean fluorescence intensity, day 10 normalized to day 1 (p-H2AX): no significant change | OS: No. of events (deaths) [1, 4]: 13 | OS: median (95% CI) [1, 4]: 10.0 (2.0–20.6) months | Response duration: No. of events [1, 5]: 6 | Response duration: median (95% CI) [1, 5]: 10.6 (3.3–NE) months | OS: No. of events (deaths) [1, 6]: 10 | OS: median (95% CI) [1, 6]: 7.6 (2.0–20.6) months | Response duration: No. of events [1, 7]: 3 | Response duration: median (95% CI) [1, 7]: 13.8 months and 13.8 (7.3–NE) months | OS: No. of events (deaths) [1, 8]: 7 | OS: median (95% CI) [1, 8]: 7.5 months and 7.5 (1.1 – NE) months | Response duration: No. of events [1, 9]: 5 | Response duration: median (95% CI) [1, 9]: 4.6 months and 4.6 (1.8–NE) months | OS: No. of events (deaths) [1, 10]: 17 | OS: median (95% CI) [1, 10]: 7.6 (3.3–13.4) months | Response duration: No. of events ([1]; overall, TP-0903 + decitabine): 8 | Response duration: median (95% CI) ([1]; overall, TP-0903 + decitabine): 7.3 (3.3–13.8) months | Best response by 6 cycles: CR [2, 4]: 5 (25) no. (%) | Best response by 6 cycles: CRh [2, 4]: 4 (20) no. (%) | Best response by 6 cycles: CRi [2, 4]: 0 (0) no. (%) | Best response by 6 cycles: MLFS [2, 4]: 2 (10) no. (%) | Best response by 6 cycles: NE (not evaluable) [2, 4]: 4 (20) no. (%) | Best response by 6 cycles: SD [2, 4]: 4 (20) no. (%) | Best response by 6 cycles: Treatment failure [2, 4]: 1 (5) no. (%) | Overall composite remission rate (CR/CRh/CRi) [2, 4]: 9 (45, 23.1–68.5) no. (%, 95% CI) | Overall response rate (CR/CRh/CRi/MLFS) [2, 4]: 11 (55, 31.5–76.9) no. (%, 95% CI) | CR in patients without a TP53 mutation ([2]; five patients without a TP53 mutation, TP-0903 + decitabine): none of the five patients without a TP53 mutation achieved CR | Overall composite remission rate (CR/CRi/CRh) ([2]; group 1, 37 mg TP-0903 + decitabine, 5/15): 33.3% | CR rate within six cycles (primary endpoint) [2, 11]: 13.3% and 13% | CRh rate [2, 11]: 20% | MLFS rate [2, 11]: 7% | Stable disease (SD) rate [2, 11]: 33% | Treatment failure rate [2, 11]: 13% | Best response by 6 cycles: CR [2, 6]: 2 (13.3) no. (%) | Best response by 6 cycles: CRh [2, 6]: 3 (20) no. (%) | Best response by 6 cycles: CRi [2, 6]: 0 (0) no. (%) | Best response by 6 cycles: MLFS [2, 6]: 1 (6.7) no. (%) | Best response by 6 cycles: NE (not evaluable) [2, 6]: 2 (13.3) no. (%) | Best response by 6 cycles: SD [2, 6]: 5 (33.3) no. (%) | Best response by 6 cycles: Treatment failure [2, 6]: 2 (13.3) no. (%) | Overall composite remission rate (CR/CRh/CRi) [2, 6]: 5 (33.3, 11.8–61.6) no. (%, 95% CI) | Overall response rate (CR/CRh/CRi/MLFS) [2, 6]: 6 (40, 16.3–67.7) no. (%, 95% CI) | Overall composite remission rate (CR/CRi/CRh) ([2]; group 2, 25 mg TP-0903 + decitabine, 6/12): 50% | CR rate within six cycles (primary endpoint) [2, 12]: 25% | CRh rate [2, 12]: 8% | CRi rate [2, 12]: 17% | MLFS rate [2, 12]: 8% | Patients who stopped treatment within four and 5 days because of AEs [2, 12]: 17% | Stable disease (SD) rate [2, 12]: 25% | Best response by 6 cycles: CR [2, 8]: 3 (25) no. (%) | Best response by 6 cycles: CRh [2, 8]: 1 (8.3) no. (%) | Best response by 6 cycles: CRi [2, 8]: 2 (16.7) no. (%) | Best response by 6 cycles: MLFS [2, 8]: 1 (8.3) no. (%) | Best response by 6 cycles: NE (not evaluable) [2, 8]: 2 (16.7) no. (%) | Best response by 6 cycles: SD [2, 8]: 3 (25) no. (%) | Best response by 6 cycles: Treatment failure [2, 8]: 0 (0) no. (%) | Overall composite remission rate (CR/CRh/CRi) [2, 8]: 6 (50, 21.1–78) no. (%, 95% CI) | Overall response rate (CR/CRh/CRi/MLFS) [2, 8]: 7 (58.3, 27.7–84.8) no. (%, 95% CI) | Best response by 6 cycles: CR [2, 10]: 5 (18.5) no. (%) | Best response by 6 cycles: CRh [2, 10]: 4 (14.8) no. (%) | Best response by 6 cycles: CRi [2, 10]: 2 (7.4) no. (%) | Best response by 6 cycles: MLFS [2, 10]: 2 (7.4) no. (%) | Best response by 6 cycles: NE (not evaluable) [2, 10]: 4 (14.8) no. (%) | Best response by 6 cycles: SD [2, 10]: 8 (29.6) no. (%) | Best response by 6 cycles: Treatment failure [2, 10]: 2 (7.4) no. (%) | Overall composite remission rate (CR/CRh/CRi) [2, 10]: 11 (40.7, 22.4–61.2) no. (%, 95% CI) | Overall response rate (CR/CRh/CRi/MLFS) [2, 10]: 13 (48.2, 28.7–68.1) no. (%, 95% CI) | Overall composite remission rate (CR/CRi/CRh) ([2]; patients with a TP53 mutation (n = 20), irrespective of group, 9/20): 45% | True CR rate ([2]; patients with mutant TP53 who received 25 mg TP-0903 + decitabine, 3 of 9): 33.3% | Treatment discontinuation: AEs ([3]; group 1, 37 mg TP-0903 + decitabine): 13% | Off treatment for reason: Adverse event ([3]; group 1, 37 mg, N = 15): 2 (13.3) n (%) | Treatment discontinuation: AEs ([3]; group 2, 25 mg TP-0903 + decitabine): 17% | Off treatment for reason: Adverse event ([3]; group 2, 25 mg, N = 12): 2 (16.7) n (%) | Off treatment for reason: Adverse event ([3]; overall, N = 27): 4 (14.8) n (%)
